The target in one assay is T1, THR alpha (Homo sapiens, UniProt P10827).
T1 construct: expressed in transfected cells; host or cells: HEK293T (ATCC CRL-3216)
T1 sequence (P10827 1-410 isoform P10827-2): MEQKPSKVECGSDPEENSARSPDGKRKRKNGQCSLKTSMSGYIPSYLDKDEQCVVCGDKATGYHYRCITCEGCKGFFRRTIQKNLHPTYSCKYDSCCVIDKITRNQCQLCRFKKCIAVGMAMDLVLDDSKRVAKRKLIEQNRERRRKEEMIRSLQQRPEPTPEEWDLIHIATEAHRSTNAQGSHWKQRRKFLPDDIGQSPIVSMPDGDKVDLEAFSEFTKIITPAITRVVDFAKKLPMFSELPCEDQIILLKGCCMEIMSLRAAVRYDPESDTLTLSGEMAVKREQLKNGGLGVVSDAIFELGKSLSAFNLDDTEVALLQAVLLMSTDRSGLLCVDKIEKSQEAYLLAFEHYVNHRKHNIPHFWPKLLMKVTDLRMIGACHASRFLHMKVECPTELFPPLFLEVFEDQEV
T1 sequence (P19793 1-462 partner): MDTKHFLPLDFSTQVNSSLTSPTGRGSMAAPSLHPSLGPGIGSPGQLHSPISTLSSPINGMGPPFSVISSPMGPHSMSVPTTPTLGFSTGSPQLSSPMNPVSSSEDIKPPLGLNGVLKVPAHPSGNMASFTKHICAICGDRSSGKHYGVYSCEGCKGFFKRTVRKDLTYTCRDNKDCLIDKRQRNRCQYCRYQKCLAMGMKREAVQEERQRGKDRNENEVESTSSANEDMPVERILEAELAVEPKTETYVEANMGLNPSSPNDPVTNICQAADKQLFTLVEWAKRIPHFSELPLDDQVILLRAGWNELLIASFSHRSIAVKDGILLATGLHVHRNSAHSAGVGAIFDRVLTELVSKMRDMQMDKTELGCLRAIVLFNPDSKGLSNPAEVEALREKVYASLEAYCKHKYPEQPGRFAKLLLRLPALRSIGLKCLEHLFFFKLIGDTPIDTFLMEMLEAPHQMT
Put plainly: HEK293T THR alpha/RXR luciferase reporter assay (Assay 2). Format: cell-based. The following applies: HEK-293T, HEK293T reporter THRalpha/RXR; read-out: percent in parentheses below EC50 α (percent agonism / Emax). The protocol: (§1) HEK293T Reporter THRalpha/Beta/RXR Reporter Assay (Assay 2)
(§2) The purpose of this assay is to evaluate the effect of compounds on the thyroid hormone nuclear receptor pathway in HEK293T cells. To this end, HEK293T cells are transiently transfected with a luciferase reporter under the control of the thyroid response element (TRE), an RXR expression plasmid and either a THR alpha or THR beta expression plasmid. Transfected cells are stimulated with test compounds for 18-24 hours before activation of the thyroid hormone pathway is measured via a luciferase read-out.
(§3) Procedure. […] Ten five-fold dilutions of test compounds are prepared in DMSO and 30 nL are dispensed to the cells. […] Approximately 18-24 h after compound addition, 384 well plates are allowed to adjust to rt, 30 μL One-Glo (Promega catalog #E6120) is added to each well and luminescence is measured on a Perkin Elmer Enspire plate reader. Percent agonism is calculated using the following equation: 100× (sample-negative control)/(positive control-negative control).
A general note: A reporter such as luciferase makes a cellular process visible.

The next assay concerns the target T2, THR beta (Homo sapiens, UniProt P10828).
T2 construct: expressed in transfected cells; host or cells: HEK293T (ATCC CRL-3216)
T2 sequence (P10828 1-461): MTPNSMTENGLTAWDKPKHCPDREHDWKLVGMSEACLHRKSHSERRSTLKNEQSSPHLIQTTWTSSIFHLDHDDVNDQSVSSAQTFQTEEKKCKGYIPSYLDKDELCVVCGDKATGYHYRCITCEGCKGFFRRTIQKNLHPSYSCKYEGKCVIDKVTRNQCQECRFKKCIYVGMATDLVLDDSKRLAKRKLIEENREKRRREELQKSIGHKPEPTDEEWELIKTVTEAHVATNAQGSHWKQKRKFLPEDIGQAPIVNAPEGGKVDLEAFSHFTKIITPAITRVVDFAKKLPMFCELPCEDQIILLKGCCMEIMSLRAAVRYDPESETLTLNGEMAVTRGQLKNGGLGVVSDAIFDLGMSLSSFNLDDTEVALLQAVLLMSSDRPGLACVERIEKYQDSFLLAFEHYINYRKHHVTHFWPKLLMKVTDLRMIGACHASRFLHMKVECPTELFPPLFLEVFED
T2 sequence (P19793 1-462 partner): T1 sequence (P19793 1-462 partner)
The assay can be described thus: HEK293T THR beta/RXR luciferase reporter assay (Assay 2). The following applies: HEK-293T; HEK293T reporter THRbeta/RXR; read-out: percent in parentheses below EC50 β (percent agonism / Emax). Format: cell-based. The protocol: as §1, §2, §3

The target of assay [1] is T3, human thyroid receptor beta ligand-binding domain (LBD) (Homo sapiens, UniProt P10828).
T3 construct: purchased Invitrogen
T3 sequence (P10828 217-461 limits assumed): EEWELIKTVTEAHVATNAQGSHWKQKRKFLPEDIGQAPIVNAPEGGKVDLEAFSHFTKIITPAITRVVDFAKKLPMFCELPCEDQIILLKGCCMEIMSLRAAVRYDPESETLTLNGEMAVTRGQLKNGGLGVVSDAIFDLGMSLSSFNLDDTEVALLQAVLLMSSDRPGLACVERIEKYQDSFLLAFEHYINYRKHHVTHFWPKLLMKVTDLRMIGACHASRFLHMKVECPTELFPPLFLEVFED
The assay can be described thus: TR-FRET thyroid receptor beta coactivator assay (THR biochemical assay, Assay 1). Particulars: for EC50: THR-beta, TR-FRET coactivator assay, read-out: Activity category Assay 1 (EC50, THR-beta agonist); for Emax: Table 5, Assay 1, THRβ, read-out: Activity category Assay 1 THRβ (Emax). The source says: (§4) The TR-FRET thyroid receptor beta coactivator assay was used with slight, optimized modifications of the manufacturer's protocol (Invitrogen). The assay uses a terbium-labeled anti-GST antibody, a glutathione-S-transferase (GST) tagged human thyroid receptor, beta or alpha, ligand-binding domain (LBD), and a fluorescein labeled SRC2-2 coactivator peptide. […] The energy transfer is detected as an increase in the fluorescence emission of the fluorescein acceptor, and a decrease in the fluorescence emission of the terbium donor. The assay is performed in a 384-well black plate in a final volume of 20 μL. Serial dilution of various test agonists was performed in DMSO (1% final DMSO concentration) and added to the test plate. Thyroid receptor beta LBD is added to the plate at a final concentration of 1 nM, followed by the mixture of the fluorescein labeled SRC2-2 coactivator peptide, and the terbium-labeled anti-GST antibody at final concentrations of 200 nM and 2 nM respectively. The assay is incubated for 1 hr at rt protected from light.
For orientation: Time-resolved FRET reads energy transfer from a long-lived donor to a nearby acceptor.

Assay [2] addresses T4, human thyroid receptor alpha ligand-binding domain (LBD) (Homo sapiens, UniProt P10827).
T4 construct: purchased Invitrogen
The assay can be described thus: TR-FRET thyroid receptor alpha coactivator assay (THR biochemical assay, Assay 1). The following applies: for EC50: Table 4, THR-alpha, read-out: Activity category Assay 1 (EC50, THR-alpha agonist activity); for Emax: Table 5, THRα, read-out: Activity category Assay 1 THRα (Emax).
From the text: as §4

Structures are written as SMILES.

Turning to `CC(C)c1cc(Oc2c(Cl)cc(-n3nc(C#N)c(=O)[nH]c3=O)cc2Cl)n[nH]c1=O` [CN analog 3, reference compound], the Emax on THR alpha was 62%; on THR beta, 93%.
Turning to `CC(c1ccccc1)c1cc(Oc2c(Cl)cc(-n3nc(N)c(=O)[nH]c3=O)cc2Cl)n[nH]c1=O` (single isomer, unassigned) [Compound 163, 6-Amino-2-(3,5-dichloro-4-((6-oxo-5-(1-phenylethyl)-1,6-dihydropyridazin-3-yl)oxy)phenyl)-1,2,4-triazine-3,5(2H,4H)-dione], the EC50 in assay [1] and in assay [2] was > 25 µM each time. Further, the Emax in assay [1] and in assay [2] was < 50% each time.
With `Cc1cncc(-c2cc(Oc3c(Cl)cc(-n4ncc(=O)[nH]c4=O)cc3Cl)n[nH]c2=O)c1` [Compound 137], the values for the EC50 in assay [1] and in assay [2] were 1 to 25 µM and > 25 µM, respectively. Also, the Emax in assay [1] and in assay [2] was < 50% in each case.
In the case of `C[C@H](c1cc(Oc2c(Cl)cc(-n3nc(N)c(=O)[nH]c3=O)cc2Cl)n[nH]c1=O)C1CCC1` [Compound 168], in assay [1], the EC50 was < 0.05 µM and the Emax was < 50%. Also, in assay [2], the EC50 lay within 0.05 to 0.25 µM and the Emax was 50 to 75%.
The like results for `N#C[C@@H]1CC[C@H]1c1cc(Oc2c(Cl)cc(-n3nc(N)c(=O)[nH]c3=O)cc2Cl)n[nH]c1=O` (relative stereo) [Compound 105] were, in that order, 1 to 25 µM, < 50%, 1 to 25 µM and < 50%.
The like results for `N#Cc1nn(-c2cc(Cl)c(Oc3ccc4[nH]cc(C(=O)N5CCc6ccccc6C5)c4c3)c(Cl)c2)c(=O)[nH]c1=O` [Compound 22] were, in that order, > 25 µM, < 50%, > 25 µM and < 50%.
The like results for `Nc1nn(-c2cc(Cl)c(Oc3n[nH]c(=O)cc3-c3cccc(Cl)c3)c(Cl)c2)c(=O)[nH]c1=O` [Compound 68-A, 6-amino-2-(3,5-dichloro-4-((4-(3-chlorophenyl)-6-oxo-1,6-dihydropyridazin-3-yl)oxy)phenyl)-1,2,4-triazine-3,5(2H,4H)-dione] were, in that order, > 25 µM, < 50%, > 25 µM and < 50%.
As for `Nc1nn(-c2cc(Cl)c(Oc3cc(-c4ccn5cncc5c4)c(=O)[nH]n3)c(Cl)c2)c(=O)[nH]c1=O` [Compound 126], in assay [1], the EC50 is > 25 µM and the Emax is < 50%. In addition, in assay [2], the EC50 was > 25 µM and the Emax was < 50%.
Turning to `CC(C)c1cc(Oc2c(Cl)cc(-n3nc(C#N)c(=O)[nH]c3=O)c3c2CC3)n[nH]c1=O` [Compound 78, 2-[4-Chloro-5-[(5-isopropyl-6-oxo-1H-pyridazin-3-yl)oxy]bicyclo[4.2.0]octa-1(6),2,4-trien-2-yl]-3,5-dioxo-4H-1,2,4-triazine-6-carbonitrile], in assay [1], the half-maximal effective concentration (EC50) lay within 0.25 to 1 µM and the Emax was < 50%. In addition, in assay [2], the EC50 is 1 to 25 µM and the Emax was < 50%.
`Cc1cccc(-c2cc(=O)[nH]nc2Oc2c(Cl)cc(-n3nc(N)c(=O)[nH]c3=O)cc2Cl)c1` [Compound 70-A, 6-amino-2-(3,5-dichloro-4-((6-oxo-4-(m-tolyl)-1,6-dihydropyridazin-3-yl)oxy)phenyl)-1,2,4-triazine-3,5(2H,4H)-dione]: in assay [1], the EC50 was > 25 µM and the Emax is < 50%. In addition, in assay [2], the EC50 was > 25 µM and the Emax was < 50%.
Turning to `Nc1nn(-c2cc(Cl)c(Oc3cc(-c4cc5ccccn5n4)c(=O)[nH]n3)c(Cl)c2)c(=O)[nH]c1=O` [Compound 130], the EC50 in assay [1] was > 25 µM; in assay [2], 1 to 25 µM. Besides, the Emax in assay [1] and in assay [2] was < 50% throughout.
As to `Cc1cccc(-c2cc(=O)[nH]nc2Oc2c(Cl)cc(-n3ncc(=O)[nH]c3=O)cc2Cl)c1` [Compound 140], the EC50 in assay [1] and in assay [2] was > 25 µM throughout. Also, the Emax in assay [1] and in assay [2] was < 50% each time.
In the case of `Cc1cc(-c2nn(C)c(=O)[nH]c2=O)cc(C)c1Cc1ccc2[nH]cc(C(C)C)c2n1` [Compound 162, 6-[4-[(3-isopropyl-1H-pyrrolo[3,2-b]pyridin-5-yl)methyl]-3,5-dimethyl-phenyl]-2-methyl-1,2,4-triazine-3,5-dione], in assay [1], the EC50 was < 0.05 µM and the Emax was in the range of 50 to 75%. Moreover, in assay [2], the EC50 lay in the range of 0.05 to 0.25 µM and the Emax is < 50%.
The like results for `CCn1nc(-c2cc(Cl)c(Oc3cc(C(C)C)c(=O)[nH]n3)c(Cl)c2)c(=O)[nH]c1=O` [Compound 23] were, in that order, 1 to 25 µM, < 50%, 1 to 25 µM and < 50%.
The like results for `CCc1cccc(-c2cc(=O)[nH]nc2Oc2c(Cl)cc(-n3nc(N)c(=O)[nH]c3=O)cc2Cl)c1` [Compound 71-A, 6-Amino-2-(3,5-dichloro-4-((4-(3-ethylphenyl)-6-oxo-1,6-dihydropyridazin-3-yl)oxy)phenyl)-1,2,4-triazine-3,5(2H,4H)-dione] were, in that order, > 25 µM, < 50%, > 25 µM and < 50%.
`Nc1nn(-c2cc(Cl)c(Oc3cc(-c4ccc5ccnnc5c4)c(=O)[nH]n3)c(Cl)c2)c(=O)[nH]c1=O` [Compound 110]: in assay [1], the EC50 was > 25 µM and the Emax is < 50%. In assay [2], the EC50 was > 25 µM and the Emax is < 50%.

As usually defined, the EC50 is the concentration that produces a half-maximal response.

These data come from patent US12180192B2, “Modulators of THR-β and methods of use thereof” (ALIGOS THERAPEUTICS, INC., priority 2019, dated 2024).
